Results as given in patent publication EP1752149A1 (LABORATORIOS DEL DR. ESTEVE, S.A., priority 2005, dated 2007).
pIC50: −log10 of the molar value.

How the values were obtained:
[1] = In-vivo bioassay system for determination of cannabinoid activity (hot-plate test, hypothermia, catalepsy, sedation); conditions: for Agonistic effect A: Hot-Plate test / Agonistic effect B: Hypothermia / Agonistic effect C: Catalepsy / Agonistic effect D: Sedation: 5 mg/kg i.v.
[2] = Cell viability, tetrazolium salt WST-1, unstimulated Jurkat cells; type: cell-based; conditions: human, Jurkat (Cont), read-out: percentage of viability
Method: (§1) The viability of the cells was measured by the use of the tetrazolium salt WST-1 (Roche Molecular Biochemicals). Unstimulated Jurkat cells or LPS (5 µg/ml) treated THP-1 cells were incubated for 24 or 18 hours respectively in the presence of increasing doses of the compound according to example 1 (1, 10, 100, 1000 and 10000 nM) and incubated with 10% of WST-1 reagent for 1 hour. Quantification of the formazan dye produced by metabolically active cells was spectrophotometrically measured at 450 nm and a reference wavelength of 630 nm. Data are represented as percentage of viability considering 100% the value of absorbance obtained in the absence of example 1 (Table 1).

[3] = Cell viability, tetrazolium salt WST-1, LPS treated THP-1 cells; type: cell-based; conditions: human, THP-1 (LPS 5 µg/ml), read-out: percentage of viability
Method: as §1

[4] = test system: Nuclear factor of activated T cells (NFAT); assay: NFAT-LUC luciferase reporter, transcriptional activation in Jurkat T cells; type: cell-based, human; conditions: Jurkat (PMA+Ion), 6 hours; for pIC50: Homo sapiens, approximate value, read-out: NFAT-LUC IC-50
Method: (§2) It was also analyzed how these compounds affect transcriptional induction mediated by the transcription factors Nuclear factor of activated T cells (NFAT) or Nuclear factor (NF)-κB. In these experiments, Jurkat T cells or THP-1 cells were transiently transfected by the Lipofectamine2000 reagent (Invitrogen), with luciferase reporter constructs whose expression are directed by three copies of the Interleukin-2 (IL-2) NFAT responsive element (NFAT-LUC) or by three copies of an NF-κB responsive element (NF-κB-LUC). Cells were treated with increased doses of the compound according to example 1 in the presence or absence of stimulation with the phorbol ester PMA (15 ng/ml) plus the A23187 calcium ionophore (1µM) for 6 hours in Jurkat cells or with LPS (5 µg/ml) for 18 hours in THP-1 cells and luciferase activity was measured in cell lysates. Results obtained are represented as percentage of activation, considering 100% the value of luciferase activity obtained in stimulated cells in the absence of the compound according to example 1. The approximate IC-50 (µM) values for the inhibition of the transcriptional activation of NFAT and NF-κB are also shown (Table 2).

Nuclear factor (NF)-κB [5] = assay: NF-κB-LUC luciferase reporter, transcriptional activation in Jurkat T cells; type: cell-based, human; conditions: Jurkat (PMA+Ion), 6 hours; for pIC50: Homo sapiens, approximate value, read-out: NF-κB -LUC IC-50
Method: as §2

Nuclear factor (NF)-κB [6] = assay: NF-κB-LUC luciferase reporter, transcriptional activation in THP-1 cells; type: cell-based, human; conditions: THP-1 (LPS), 18 hours; for pIC50: Homo sapiens, approximate value, read-out: NF-κB-LUC IC-50
Method: as §2

[7] = test system: cyclooxygenase-2 (COX-LUC); assay: COX2-LUC promoter luciferase reporter in Jurkat T cells; type: cell-based, human; conditions: Jurkat (PMA+Ion); for pIC50: Homo sapiens, approximated value, read-out: COX2-LUC IC-50
Method: as §2
(§3) The compound according to example 1 was measured for its ability to regulate gene transcription in immune activation through the modulation of the transcriptional activity of luciferase reporter constructs whose expression is directed by the promoter region of genes involved in the inflammation process and immune activation, such as cyclooxygenase-2 (COX-LUC), tumor necrosis factor α (TNF-LUC), Interleukin-2 (IL-2-LUC), Interleukin-6 (IL-6-LUC) and the inducible Nitric Oxide Synthase (iNOS-LUC). Jurkat T cells or THP-1 cells were transiently transfected with these constructs as described above, and treated with different doses of The compound according to example 1 in the presence or absence of stimulation with PMA plus Ion (Jurkat) or LPS in a similar way as for NFAT-LUC and NFKB-LUC reporter analysis. Results are represented as percentage of activation, considering 100% the value of luciferase activity obtained in stimulated cells in the absence of the compound according to example 1. Approximated IC50 (µM) values obtained for inhibition of the transcriptional activation are summarized in tables 3 (Jurkat) and 4 (THP-1).

[8] = test system: tumor necrosis factor α (TNF-LUC); assay: TNF-LUC promoter luciferase reporter in Jurkat T cells; type: cell-based, human; conditions: Jurkat (PMA+Ion); for pIC50: Homo sapiens, approximated value, read-out: TNF-LUC IC-50
Method: as §2, §3

Interleukin-2 (IL-2-LUC) = assay: IL-2-LUC promoter luciferase reporter in Jurkat T cells; type: cell-based, human; conditions: Jurkat (PMA+Ion); for pIC50: Homo sapiens, approximated value, read-out: IL-2-LUC IC-50
Method: as §2, §3

Interleukin-6 (IL-6-LUC) = assay: IL-6-LUC promoter luciferase reporter in Jurkat T cells; type: cell-based, human; conditions: Jurkat (PMA+Ion); for pIC50: Homo sapiens, approximated value, read-out: IL-6-LUC IC-50
Method: as §2, §3

[9] = test system: cyclooxygenase-2 (COX-LUC); assay: COX2-LUC promoter luciferase reporter in THP-1 cells; type: cell-based, human; conditions: THP-1 (LPS); for pIC50: Homo sapiens, approximated value, read-out: COX2-LUC IC-50
Method: as §2, §3

[10] = test system: tumor necrosis factor α (TNF-LUC); assay: TNF-LUC promoter luciferase reporter in THP-1 cells; type: cell-based, human; conditions: THP-1 (LPS); for pIC50: Homo sapiens, approximated value, read-out: TNF-LUC IC-50
Method: as §2, §3

[11] = test system: inducible Nitric Oxide Synthase (iNOS-LUC); assay: iNOS-LUC promoter luciferase reporter in THP-1 cells; type: cell-based, human; conditions: THP-1 (LPS); for pIC50: Homo sapiens, approximated value, read-out: iNOS-LUC IC-50
Method: as §2, §3

TNFα = assay: Inhibition of cytokine production: TNFα secretion by Jurkat T cells, ELISA; type: cell-based, human; conditions: Jurkat (PMA+Ion), 24 hours; for IC50: Homo sapiens, approximated value, read-out: TNF IC-50 (µM), inhibition of the cytokine production
Method: (§4) In addition to the transcriptional assays, we have also determined the effects of the compound according to example 1 in the secretion of TNFα and IL-2 to the culture medium. Jurkat T cells were treated with different doses of the compound according to example 1 in the presence or absence of stimulation with PMA plus Ion for 24 hours. Supematants were collected and cytokines were measured by specific ELISA for each cytokine (Bender MedSystems). Results are represented as percentage of cytokine production, considering 100% the maximal levels of cytokine production (pg/ml) obtained in PMA+lon stimulated Jurkat cells in the absence of the compound according to example 1.

IL-2 = assay: Inhibition of cytokine production: IL-2 secretion by Jurkat T cells, ELISA; type: cell-based, human; conditions: Jurkat (PMA+Ion), 24 hours; for IC50: Homo sapiens, approximated value, read-out: IL-2 IC-50 (µM), inhibition of the cytokine production
Method: as §4

[12] = 5 mg/kg i.v. prior to Win 55212-2 in a dose of 1,25mg/kg i.v.

Compound: O=C(NN1CCCCC1)C1=NN(c2ccc(Cl)cc2Cl)C(c2ccc(Cl)cc2)C1 (stereo not shown) [Example 1, N-piperidinyl-5-(4-chlorophenyl)-1-(2,4-dichlorophenyl)-4,5-dihydro-1H-pyrazole-3-carboxamide]
- Agonistic effect A: Hot-Plate test [1]: 0
- Agonistic effect B: Hypothermia [1]: 0
- Agonistic effect C: Catalepsy [1]: 0
- Agonistic effect D: Sedation [1]: 0
- Antagonistic Effect B: Hypothermia [1, 12]: 100
- Antagonistic Effect C: Catalepsy [1, 12]: 100
- Antagonistic Effect D: Sedation [1, 12]: 100
- viability at 24 h, 0.01 µM ([2]; 10 nM): 92.6%
- viability at 24 h, 0.1 µM ([2]; 100 nM): 95.4%
- viability at 24 h, 1 µM ([2]; 1000 nM): 96.3%
- viability at 24 h, 10 µM ([2]; 10000 nM): 97.7%
- viability at 18 h, 0.01 µM ([3]; 10 nM): 105%
- viability at 18 h, 1 µM ([3]; 1000 nM): 110%
- viability at 18 h, 10 µM ([3]; 10000 nM): 80.2%
- pIC50 [4]: 5.52
- NFAT-LUC percentage of activation ([4]; 0.01 µM): 72.4%
- NFAT-LUC percentage of activation ([4]; 1 µM): 56.8%
- NFAT-LUC percentage of activation ([4]; 10 µM): 7.4%
- pIC50 (Nuclear factor (NF)-κB [5]): 5.15
- NF-κB-LUC percentage of activation (Nuclear factor (NF)-κB [5]; 0.01 µM): 94.7%
- NF-κB-LUC percentage of activation (Nuclear factor (NF)-κB [5]; 1 µM): 74.4%
- NF-κB-LUC percentage of activation (Nuclear factor (NF)-κB [5]; 10 µM): 39.3%
- pIC50 (Nuclear factor (NF)-κB [6]): 5.22
- NF-κB-LUC percentage of activation (Nuclear factor (NF)-κB [6]; 0.01 µM): 100.4%
- NF-κB-LUC percentage of activation (Nuclear factor (NF)-κB [6]; 1 µM): 104.6%
- NF-κB-LUC percentage of activation (Nuclear factor (NF)-κB [6]; 10 µM): 3.4%
- pIC50 [7]: 5.10
- COX2-LUC percentage of activation ([7]; 0.01 µM): 102.7%
- COX2-LUC percentage of activation ([7]; 1 µM): 93.2%
- COX2-LUC percentage of activation ([7]; 10 µM): 31.5%
- pIC50 [8]: 7.00
- TNF-LUC percentage of activation ([8]; 0.01 µM): 59.5%
- TNF-LUC percentage of activation ([8]; 1 µM): 29.9%
- TNF-LUC percentage of activation ([8]; 10 µM): 13.7%
- pIC50 (Interleukin-2 (IL-2-LUC)): 6.00
- IL-2-LUC percentage of activation (Interleukin-2 (IL-2-LUC); 0.01 µM): 85.9%
- IL-2-LUC percentage of activation (Interleukin-2 (IL-2-LUC); 1 µM): 49.0%
- IL-2-LUC percentage of activation (Interleukin-2 (IL-2-LUC); 10 µM): 9.9%
- pIC50 (Interleukin-6 (IL-6-LUC)): 5.40
- IL-6-LUC percentage of activation (Interleukin-6 (IL-6-LUC); 0.01 µM): 82.3%
- IL-6-LUC percentage of activation (Interleukin-6 (IL-6-LUC); 1 µM): 61.8%
- IL-6-LUC percentage of activation (Interleukin-6 (IL-6-LUC); 10 µM): 18.6%
- pIC50 [9]: 5.70
- COX2-LUC percentage of activation ([9]; 0.01 µM): 102.7%
- COX2-LUC percentage of activation ([9]; 1 µM): 59.6%
- COX2-LUC percentage of activation ([9]; 10 µM): 6.8%
- pIC50 [10]: 5.52
- TNF-LUC percentage of activation ([10]; 0.01 µM): 104.4%
- TNF-LUC percentage of activation ([10]; 1 µM): 65.4%
- TNF-LUC percentage of activation ([10]; 10 µM): 12.7%
- pIC50 [11]: 5.40
- iNOS-LUC percentage of activation ([11]; 0.01 µM): 89.5%
- iNOS-LUC percentage of activation ([11]; 1 µM): 71.3%
- iNOS-LUC percentage of activation ([11]; 10 µM): 13.2%
- IC50 (TNFα): 5 µM
- TNF percentage of cytokine production (TNFα; 0.01 µM): 79.5%
- TNF percentage of cytokine production (TNFα; 1 µM): 80.3%
- TNF percentage of cytokine production (TNFα; 10 µM): 11.5%
- IC50 (IL-2): 6 µM
- IL-2 percentage of cytokine production (IL-2; 0.01 µM): 97.5%
- IL-2 percentage of cytokine production (IL-2; 1 µM): 98.7%
- IL-2 percentage of cytokine production (IL-2; 10 µM): 13.2%

Compound: O=C(C1=NN(c2ccc(Cl)cc2Cl)C(c2ccc(Cl)cc2)C1)N1CCCCC1 (stereo not shown) [Example 5, [5-(4-Chloro-phenyl)-1-(2,4-dichloro-phenyl)-4,5-dihydro-1H-pyrazol-3-yl]-piperidin-1-yl-methanone]
- Agonistic effect A: Hot-Plate test [1]: 0
- Agonistic effect B: Hypothermia [1]: 50
- Agonistic effect C: Catalepsy [1]: 0
- Agonistic effect D: Sedation [1]: 0
- Antagonistic Effect A: Hot-Plate test [1, 12]: 50
- Antagonistic Effect B: Hypothermia [1, 12]: 40
- Antagonistic Effect C: Catalepsy [1, 12]: 20
- Antagonistic Effect D: Sedation [1, 12]: 20

Compound: Cc1c(C(=O)NN2CCCCC2)nn(-c2ccc(Cl)cc2Cl)c1-c1ccc(Cl)cc1 [SR141716, reference compound]
- pIC50 [4]: 6.70
- pIC50 (Nuclear factor (NF)-κB [5]): 6.00
- pIC50 (Nuclear factor (NF)-κB [6]): 5.30
- pIC50 [7]: < 5.00
- pIC50 [8]: 8.00
- pIC50 (Interleukin-2 (IL-2-LUC)): 7.00
- pIC50 (Interleukin-6 (IL-6-LUC)): 6.00
- pIC50 [9]: 5.22
- pIC50 [10]: 5.52
- pIC50 [11]: 5.52
- IC50 (TNFα): 6 µM
- IC50 (IL-2): 7 µM
